Measured values as given in PubChem BioAssay (NCI).
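Exposure lasted 48 hours, with cells grown in 96-well plates and compounds tested at five concentrations. GI50: concentration for 50% inhibition of growth. At the TGI there is no net growth.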

Test system: MDA-MB-468 breast
Experiment: NCI-60 cell line screen, 48 h

Row | Compound | GI50 [nM] | TGI [nM]
1 | C=C(C)[C@@H]1CC[C@]2(COP(=O)(OCC)OCC)CC[C@]3(C)[C@H](CC[C@@H]4[C@@]5(C)CCCNC(C)(C)[C@@H]5CC[C@]43C)[C@@H]12 | 1390 | 2910
2 | COC(=O)c1cc(-c2ccccc2)[nH]c1N/N=C/c1c(Cl)cccc1Cl | 185 | 
3 | O=C(O)C[C@H](O)C[C@H](O)/C=C/c1c(C2CC2)nc2ccccc2c1-c1ccc(F)cc1 | 2370 | 12100
4 | Cc1ccc2nc3ccccc3c(NCc3ccc(Cl)cc3)c2c1 | 1630 | 6380
5 | NC(=N\N=C/c1ccc(O)cc1)/C(N)=N\N=C/c1ccc(O)cc1 | > 100000 | > 100000
6 | Cc1cn2c(/C=C3/C(=O)Nc4c3ccc3ccccc43)c(C(F)(F)F)nc2s1 | 1460 | > 100000
7 | CCOC(=O)NC1CCc2cc(OC)c(OC)c(OC)c2-c2ccc(OC)c(=O)cc21 (configuration not stated) | 548 | > 100000
8 | COc1cccc2c1C=CC1(O2)Oc2cccc(OC)c2C=C1C (configuration not stated) | 402 | > 100000
9 | Cc1ccc(/C=C/c2c(C(=O)/C=C/c3ccccc3)c(C)nc3ccccc23)cc1 | 1800 | 3470
10 | O=[N+]([O-])c1cc[n+]([O-])c2ccccc12 | 135 | 324
11 | COc1ccc(-c2cc(=O)n(-c3nc4ccccc4[nH]3)[nH]2)cc1OC | 4300 | 44700
12 | CC1=CC2C(C(O)CC3(C)C2CC(C)C32OCOC23COCO3)C2(C)C/C(=C/O)C(=O)C=C12 (configuration not stated) | 1790 | 3470
13 | CCCCNNC(=O)c1ccc(Br)cc1 | 1710 | > 50000
14 | CCn1c(=O)c2nc(SC)sc2n(-c2ccc(C)cc2)c1=O | 62000 | > 100000
15 | COc1ccc(/C=C(/c2ccccc2)[N+](=O)[O-])c(OC)c1 | 1510 | 3400
16 | CN(C)C(=O)Nc1nc2cc(Cl)c(Cl)cc2[nH]1 | 537 | > 91000
17 | COc1c(C(C)=O)c(OCCCCOc2c(C(C)=O)c(OC)c3ccoc3c2OC)c(OC)c2occc12 | 2310 | > 100000
18 | COC(=O)c1c2c(c(C)[n+]([O-])c1C)C(=O)C=C(NCc1ccccc1)C2=O | 266 | 1140
19 | O=C(NCCN1CCOCC1)OCc1nc2nc(Cl)nc(N3CCOCC3)c2[nH]1 | 375 | 3790
20 | CCCCCCCCCCCC1=NC(C)(C)CN1C(C)(C)CO | 1820 | 3670
21 | Cc1cc2ncc(-c3cc4ccccc4c(N4CCN(C)CC4)n3)nc2cc1C | 2120 | 5110
22 | Fc1ccc(-c2ncn(C3CCNCC3)c2-c2ccnc(Oc3ccc4c(c3)OCO4)n2)cc1 | 3190 | 8020

Row | Compound | GI50 [nM] | TGI [nM]
23 | Nc1ccn(C2CC(F)C(CO)O2)c(=O)n1 (configuration not stated) | > 100000 | > 100000
24 | COc1ccc([C@H](CC(=O)O)N2CCN(CCCc3ccc4c(n3)NCCC4)C2=O)cn1 | 111 | 479
25 | C=CC(=O)N1CCC(c2ccc(C(N)=O)c(-c3ccc(Oc4ccccc4)cc3)n2)CC1 | 5760 | 49500
26 | O=c1c2cc(C(F)(F)F)ccc2sc2c(NCCCNCCO)nc3ccccc3c12 | 1570 | 3130
27 | CC(C)(C)c1ccc(C(O)CCCN2CCC(C(O)(c3ccccc3)c3ccccc3)CC2)cc1 (configuration not stated) | 1150 | 2450
28 | C/C(=C\c1ccn(-c2ccccc2N)n1)[C@@H]1C[C@@H]2O[C@]2(C)CCC[C@H](C)[C@H](O)[C@@H](C)C(=O)C(C)(C)[C@@H](O)CC(=O)O1 | 35.7 | 732
29 | O=C(Nc1ccc(F)c(F)c1)c1cc(-c2ccc(F)cc2F)ccc1O | 1120 | 4350
30 | CN(C)c1ccc(Nc2c3ccccc3nc3ccccc23)cc1 | 632 | 2110
31 | CCOc1ccc2c(-c3ccnc(Nc4cc(OC)cc(C(F)(F)F)c4)n3)cnn2n1 | 836 | > 20500
32 | CCC(=O)N1C/C(=C/c2ccc(Cl)cc2)C(=O)/C(=C/c2ccc(Cl)cc2)C1 | 704 | 2080
33 | Cc1ccc(S(=O)(=O)Oc2ccc3c4c(c(=O)oc3c2)CCCCCC4)cc1 | 2040 | > 100000
34 | c1ccc(-c2nn3c(c2-c2ccnc4cc(OCCN5CCOCC5)ccc24)CCC3)nc1 | 30900 | > 100000
35 | O=C(CCN1CCCC1)Nc1ccc2c(NCc3ccccc3)c3ccccc3nc2c1 | 274 | 1060
36 | C=C(C)[C@@H]1CCC=C2CC[C@]3(C)[C@H](CC[C@@H]4[C@@]5(C)CCCNC(C)(C)[C@@H]5CC[C@]43C)[C@H]21 | 1610 | 3100
37 | N#Cc1nc(-c2ccc(F)cc2)oc1S(=O)(=O)N1CCCCC1 | 1640 | 3300
38 | Cc1ccc(/C=C(\C#N)c2cc3ccccc3n2C)cc1 | 406 | > 100000
39 | COc1ccc(C(=O)Cn2c(C(=O)c3ccccc3)nc3ccccc32)cc1 | 817 | 5770
40 | Oc1c(C(Nc2ccccc2Br)c2ccccc2)ccc2cccnc12 (configuration not stated) | 1520 | 6120
41 | O=C1CCc2c(sc3[nH]c(=S)n(-c4cc(C(F)(F)F)cc(C(F)(F)F)c4)c(=O)c23)C1 | 248 | 768
42 | CNC(=O)NCC1OC(n2cnc3c(NC(=O)Nc4ccccc4)ncnc32)C(O[Si](C)(C)C(C)(C)C)C1O[Si](C)(C)C(C)(C)C (configuration not stated) | 3350 | 13900
43 | C=C1C(=O)O[C@H]2[C@H]1CC/C(COC(=O)CCCCCC(=O)OC/C1=C/CC[C@@]3(C)O[C@H]3[C@H]3OC(=O)C(=C)[C@@H]3CC1)=C\CC[C@@]1(C)O[C@@H]21 | 1840 | 7100
44 | COc1ccc2c(c1)nc(NNC(=O)c1cnccn1)c1cccn12 | 227 | 1660
